Test results as given in publication PMC6599250, “Functional diversity of inhibitors tackling the differentiation blockage of MLL-rearranged leukemia” (Journal of Hematology & Oncology, 2019).
Where two headings read alike, the source gives them in different places.

Tests used:
[1] = system: MV4-11 (MLL-AF4) cells; assay: Cell proliferation (alamarBlue) MV4-11; assay type: cell-based; conditions: Homo sapiens
Method: (§1) Cells were seeded in the optimal growth medium at 4000–5000 cells/well in a 96 MTP and cultured 18–24 h before inhibitor treatment.

[2] = system: EOL-1 (MLL-TD) cells; assay: Cell proliferation (alamarBlue) EOL-1; assay type: cell-based; conditions: Homo sapiens
Method: as §1

[3] = system: MV4-11, MOLM-13 and HL-60 cells; assay: Cell cycle analysis (PI, flow cytometry); assay type: cell-based; conditions: 4 days of treatment (Figure S2)
Method: Cells were washed with PBS and fixed overnight at − 20 °C with 70% ethanol. Fixed cells were stained with PI solution (Sigma-Aldrich St. Louis, MO, USA) solution containing RNase A (Qiagen, Hilden, Germany). Fluorescence was measured with FACS Canto II (BD Biosciences, Heidelberg, Germany) flow cytometer and data was analyzed with FACSDiva software.

[4] = system: DHODH; set-up: method as in PMID 2743343; conditions: read-out: On target Potency IC50; cited from earlier work
[5] = system: Jurkat (MLL-WT) cells; assay: Cell proliferation (alamarBlue) Jurkat; assay type: cell-based; conditions: Homo sapiens
Method: as §1

[6] = system: MV4-11, MOLM-13 and HL-60 cells; assay: Cell proliferation, all three tested AML cell lines; assay type: cell-based; conditions: 96 h, read-out: anti-proliferation IC50s
Method: Cells were seeded in the optimal growth medium at 4000–5000 cells/well in a 96 MTP and cultured 18–24 h before inhibitor treatment. Upon treatment with the indicated inhibitor, cells were cultured for 24 h, 96 h, and 168 h and effects on proliferation were determined using alamarBlue Cell Viability Reagent (Thermo Fisher Scientific, Waltham, MA, USA).

[7] = system: OCI-AML-5 (MLL-WT) cells; assay: Cell proliferation (alamarBlue) OCI-AML-5; assay type: cell-based; conditions: Homo sapiens
Method: as §1

[8] = system: OCI-AML-2 (MLL-AF9) cells; assay: Cell proliferation (alamarBlue) OCI-AML-2; assay type: cell-based; conditions: Homo sapiens
Method: as §1

[9] = system: KOPN-8 (MLL-ENL) cells; assay: Cell proliferation (alamarBlue) KOPN-8; assay type: cell-based; conditions: Homo sapiens
Method: as §1

[10] = system: ML-2 (MLL-AF6) cells; assay: Cell proliferation (alamarBlue) ML-2; assay type: cell-based
Method: as §1

[11] = system: OCI-AML-3 (MLL-WT) cells; assay: Cell proliferation (alamarBlue) OCI-AML-3; assay type: cell-based; conditions: Homo sapiens
Method: as §1

[12] = system: MLL-fused cell lines (MV4-11, MOLM-13); assay: CD11b protein expression by flow cytometry, MLL-fused lines; assay type: cell-based; conditions: 4 and 7 days of treatment
Summary of the method: (§2)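 Cells seeded 24 h before inhibitor treatment lasting 4 or 7 days. Then stained with CD11b-APC plus DAPI, or AnnexinV-FITC plus PI, and analysed by flow cytometry.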

[13] = system: SEM (MLL-AF4) cells; assay: Cell proliferation (alamarBlue) SEM; assay type: cell-based
Method: as §1

[14] = system: HL-60 cells; assay: CD11b protein expression by flow cytometry, HL-60; assay type: cell-based; conditions: non-fused HL-60 cell line, 4 and 7 days of treatment
Summary of the method: as §2

[15] = system: RS4;11 (MLL-AF4) cells; assay: Cell proliferation (alamarBlue) RS4;11; assay type: cell-based; conditions: Homo sapiens, RS4-11, read-out: IC50 proliferation, RS4;11 (MLL-AF4)
Method: as §1

[16] = system: MOLM-14 (MLL-AF9) cells; assay: Cell proliferation (alamarBlue) MOLM-14; assay type: cell-based; conditions: Homo sapiens
Method: as §1

[17] = system: NOMO-1 (MLL-AF9) cells; assay: Cell proliferation (alamarBlue) NOMO-1; assay type: cell-based; conditions: Homo sapiens
Method: as §1

[18] = system: MOLM-13 (MLL-AF9) cells; assay: Cell proliferation (alamarBlue) MOLM-13; assay type: cell-based; conditions: Homo sapiens
Method: as §1

[19] = system: HL-60 (MLL-WT) cells; assay: Cell proliferation (alamarBlue) HL-60; assay type: cell-based; conditions: Homo sapiens, read-out: IC50 proliferation
Method: as §1

Cc1c(-c2ccc(-c3ccccc3F)cc2)nc2ccc(F)cc2c1C(=O)O [Brequinar]
IC50 ([1]; MV4-11, read-out: IC50 proliferation, MV4-11 (MLL-AF4), D1): > 10000 nM
IC50 ([1]; MV4-11, read-out: IC50 proliferation, MV4-11 (MLL-AF4), D4): 100 nM
IC50 ([1]; MV4-11, read-out: IC50 proliferation, MV4-11 (MLL-AF4), D7): 220 nM
IC50 ([2]; EOL1, read-out: IC50 proliferation, EOL-1 (MLL-TD), D1): > 10000 nM
IC50 ([2]; EOL1, read-out: IC50 proliferation, EOL-1 (MLL-TD), D4): 380 nM
IC50 ([2]; EOL1, read-out: IC50 proliferation, EOL-1 (MLL-TD), D7): 110 nM
cell cycle effect [3]: slight S-phase arrest at lower concentrations
IC50 ([5]; read-out: IC50 proliferation, Jurkat (MLL-WT), D1): > 10000 nM
IC50 ([5]; read-out: IC50 proliferation, Jurkat (MLL-WT), D4): 30 nM
IC50 ([5]; read-out: IC50 proliferation, Jurkat (MLL-WT), D7): 50 nM
IC50 [6]: 30 to 140 nM
IC50 ([7]; OCI-AML-5, read-out: IC50 proliferation, OCI-AML-5 (MLL-WT), D1): > 10000 nM
IC50 ([7]; OCI-AML-5, read-out: IC50 proliferation, OCI-AML-5 (MLL-WT), D4): > 10000 nM
IC50 ([7]; OCI-AML-5, read-out: IC50 proliferation, OCI-AML-5 (MLL-WT), D7): > 10000 nM
IC50 ([8]; OCI-AML2, read-out: IC50 proliferation, OCI-AML-2 (MLL-AF9), D1): > 10000 nM
IC50 ([8]; OCI-AML2, read-out: IC50 proliferation, OCI-AML-2 (MLL-AF9), D4): > 10000 nM
IC50 ([8]; OCI-AML2, read-out: IC50 proliferation, OCI-AML-2 (MLL-AF9), D7): > 10000 nM
IC50 ([9]; KOPN-8, read-out: IC50 proliferation, KOPN-8 (MLL-ENL), D1): > 10000 nM
IC50 ([9]; KOPN-8, read-out: IC50 proliferation, KOPN-8 (MLL-ENL), D4): 300 nM
IC50 ([9]; KOPN-8, read-out: IC50 proliferation, KOPN-8 (MLL-ENL), D7): 360 nM
IC50 ([10]; read-out: IC50 proliferation, ML-2 (MLL-AF6), D1): > 10000 nM
IC50 ([10]; read-out: IC50 proliferation, ML-2 (MLL-AF6), D4): 500 nM
IC50 ([10]; read-out: IC50 proliferation, ML-2 (MLL-AF6), D7): 310 nM
IC50 ([11]; OCI-AML-3, read-out: IC50 proliferation, OCI-AML-3 (MLL-WT), D1): > 10000 nM
IC50 ([11]; OCI-AML-3, read-out: IC50 proliferation, OCI-AML-3 (MLL-WT), D4): 200 nM
IC50 ([11]; OCI-AML-3, read-out: IC50 proliferation, OCI-AML-3 (MLL-WT), D7): 240 nM
CD11b protein level [12]: increased CD11b protein level in a dose and time-dependent manner
IC50 ([13]; read-out: IC50 proliferation, SEM (MLL-AF4), D1): > 10000 nM
IC50 ([13]; read-out: IC50 proliferation, SEM (MLL-AF4), D4): 190 nM
IC50 ([13]; read-out: IC50 proliferation, SEM (MLL-AF4), D7): 250 nM
CD11b level [14]: treatment did
IC50 ([15]; D1): > 10000 nM
IC50 ([15]; D4): 1100 nM
IC50 ([15]; D7): > 10000 nM
IC50 ([16]; MOLM-14, read-out: IC50 proliferation, MOLM-14 (MLL-AF9), D1): > 10000 nM
IC50 ([16]; MOLM-14, read-out: IC50 proliferation, MOLM-14 (MLL-AF9), D4): 320 nM
IC50 ([16]; MOLM-14, read-out: IC50 proliferation, MOLM-14 (MLL-AF9), D7): 180 nM
IC50 ([17]; NOMO-1, read-out: IC50 proliferation, NOMO-1 (MLL-AF9), D1): > 10000 nM
IC50 ([17]; NOMO-1, read-out: IC50 proliferation, NOMO-1 (MLL-AF9), D4): 270 nM
IC50 ([17]; NOMO-1, read-out: IC50 proliferation, NOMO-1 (MLL-AF9), D7): 130 nM
IC50 ([18]; MOLM-13, read-out: IC50 proliferation, MOLM-13 (MLL-AF9), D1): > 10000 nM
IC50 ([18]; MOLM-13, read-out: IC50 proliferation, MOLM-13 (MLL-AF9), D4): 110 nM
IC50 ([18]; MOLM-13, read-out: IC50 proliferation, MOLM-13 (MLL-AF9), D7): 220 nM
IC50 ([19]; HL-60, 24 h): > 10000 nM
IC50 ([19]; HL-60, 96 h): 800 nM
IC50 ([19]; HL-60, 168 h): 270 nM
